From US20220228054A1, “FLUORESCENT NAPHTHALIMIDE POLYMERS AND SOLUTIONS THEREOF FOR SCALE CONTROL IN AQUEOUS SYSTEMS” (NOURYON CHEMICALS INTERNATIONAL B.V., priority 2019, published 2022)

Experiments:
Format in all cases: physicochemical
[1] = LC/FLD and GC/MS fluorescence of monomer species; details: for excitation maximum: at the emission maximum; for emission maximum: zero order excitation
Description: The sample of this example was initially analyzed by LC/MS to identify the retention times of target peaks. The same sample was then analyzed using similar, but weaker LC conditions by LC/FLD. The first step was to collect emission spectra with zero order excitation, this allows determining the emission maximum, which was 410 nm for the N-allyl-4-propoxy-1,8-naphthalimide and 450 nm for the N-allyl-4,5-dipropoxy-1,8-naphthalimide species.
The next step was to collect excitation spectra at the emission maximum for each compound. This allows determining the individual excitation maximum, which was 375 nm and 395 nm for the N-allyl-4-propoxy-1,8-naphthalimide and the N-allyl-4,5-dipropoxy-1,8-naphthalimide species respectively. The final step is to collect a chromatogram at the individual excitation and emission maxima. The latter two steps are each done with time programming the wavelengths, so each only require a single chromatogram.
Then the sample was analyzed by GC/MS to estimate the actual concentrations of the two components of interest. The ratio of the area percent by fluorescence and mass spec is the estimated relative fluorescence intensity. […] This assumes that the GC/MS area percent is the actual weight percent, which should be a close approximation.

Solubility in water = assay: Solubility in water
Description: The procedure of Example 4 in RU2640339 was repeated. An initial charge of 84 g of deionized water and 1 g of ammonium persulfate was placed in a 250 ml glass reactor with inlet ports for an agitator, water cooled condenser, thermocouple. 15 g of acrylic acid (0.208 moles, 99.73 mole percent of polymer) was weighed into a beaker and then 0.15 g of N-allyl-4-methoxy-1,8-naphthalimide (Monomer Example 2, formula weight 267, 0.00056 moles, […] of polymer) was added to the beaker and mixed until the powdered fluorescent monomer dissolved. This solution was then added to the reactor, with stirring. The reaction mixture was very cloudy, indicating insolubility of the N-allyl-4-methoxy-1,8-naphthalimide in the reaction mixture. The reactor contents were slowly heated to 85° C. When the temperature reached about 80° C., a strong exotherm was observed. The reaction mixture started to thicken and within minutes, a sticky, intractable mass was formed and started to rise up the stir shaft. An attempt was made to remove some of the reaction product from the reactor and try and dissolve it in water.

[2] = Solubility in acrylic acid; details: 1.39 g in 10.5 g of acrylic acid
Description: The solubility of the monomer reaction product of Monomer Example 2 in acrylic acid was measured in the following manner. 10 g of acrylic acid was taken and the dried monomer reaction product of Monomer Example 2 was added in 0.2 g aliquots. The Monomer Example 2 reaction product started to become insoluble after 1.39 g was added. Next, 0.5 g of acrylic acid was added to form a clear solution. The final solution had 1.39 g of reaction product of Example 2 in 10.5 g of acrylic acid. The weight of reaction product of Example 2 was 11.7% of the total solution weight.

**Q.** Which excitation maximum [1] does the source give for `C=CCN1C(=O)c2cccc3c(OCCC)ccc(c23)C1=O` [Monomer Example 3, N-allyl-4-propoxy-1,8-naphthalimide] here?
**A.** 375 nm

**Q.** What about the emission maximum [1] of the same compound?
**A.** 410 nm

**Q.** With `C=CCN1C(=O)c2cccc3c(OCCOCCOCCOC)ccc(c23)C1=O` [Monomer Example 5, N-allyl-4-(methoxy, triethylene glycol) 1,8-naphthalimide] as the compound, how does the solubility in water (Solubility in water; 25° C., pH 7) read?
**A.** less than 0.1 grams per 100 mis of water

**Q.** Which results are given for `C=CCN1C(=O)c2ccc(OCCC)c3c(OCCC)ccc(c23)C1=O` [N-allyl-4,5-dipropoxy-1,8-naphthalimide]?
**A.** excitation maximum [1]: 395 nm; emission maximum [1]: 450 nm

**Q.** Which “solubility in water (in words)” value (Solubility in water) does the source give for `C=CCOc1ccc2c3c(cccc13)C(=O)N(CCC)C2=O` [Monomer Example 4, N-propyl-4-allyloxy-1,8-naphthalimide] here?
**A.** insolubility

**Q.** With `C=CCN1C(=O)c2cccc3c(OC)ccc(c23)C1=O` [Monomer Example 2, N-allyl-4-methoxy-1,8-naphthalimide] as the compound, how does the “solubility in acrylic acid (weight of reaction product in clear solution)” value [2] read?
**A.** 11.7 % of the total solution weight
